ChEMBL document CHEMBL5465560, “Selectivity Literature for EUbOPEN Chemogenomic Library” (2024)

Columns and labels:
[1] = target: Epidermal growth factor receptor (Homo sapiens, UniProt P00533); experiment: Selectivity interaction (Millipore kinase profiler) EUB0000124b EGFR; details: at 10 µM
[2] = target: 5'-AMP-activated protein kinase catalytic subunit alpha-2 (Homo sapiens) (UniProt P54646); experiment: Selectivity interaction (KinomeScan (DiscoverX)) EUB0001079a PRKAA2; details: at 1 µM
[3] = target: T1, Dual specificity mitogen-activated protein kinase kinase 5 (Homo sapiens) (UniProt Q13163); experiment: Selectivity interaction (KinomeScan (DiscoverX)) EUB0001079a MAP2K5; details: at 1 µM
T1 sequence (whole entry): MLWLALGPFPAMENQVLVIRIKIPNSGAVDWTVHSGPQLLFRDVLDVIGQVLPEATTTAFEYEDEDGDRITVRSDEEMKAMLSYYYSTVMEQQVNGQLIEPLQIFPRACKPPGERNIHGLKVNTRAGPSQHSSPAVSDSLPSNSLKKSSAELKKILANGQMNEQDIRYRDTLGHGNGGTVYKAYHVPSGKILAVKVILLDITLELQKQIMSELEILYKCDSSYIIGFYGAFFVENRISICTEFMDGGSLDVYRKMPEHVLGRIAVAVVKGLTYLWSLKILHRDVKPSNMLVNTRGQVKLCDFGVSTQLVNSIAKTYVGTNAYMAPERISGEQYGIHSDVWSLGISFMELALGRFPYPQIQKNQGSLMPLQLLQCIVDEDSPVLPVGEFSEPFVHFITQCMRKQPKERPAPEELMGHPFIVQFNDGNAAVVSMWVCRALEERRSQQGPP

[4] = target: T2, Tyrosine-protein kinase TXK (Homo sapiens) (UniProt P42681); experiment: Selectivity interaction (KinomeScan (DiscoverX)) EUB0001079a TXK; details: at 1 µM
T2 sequence (whole entry): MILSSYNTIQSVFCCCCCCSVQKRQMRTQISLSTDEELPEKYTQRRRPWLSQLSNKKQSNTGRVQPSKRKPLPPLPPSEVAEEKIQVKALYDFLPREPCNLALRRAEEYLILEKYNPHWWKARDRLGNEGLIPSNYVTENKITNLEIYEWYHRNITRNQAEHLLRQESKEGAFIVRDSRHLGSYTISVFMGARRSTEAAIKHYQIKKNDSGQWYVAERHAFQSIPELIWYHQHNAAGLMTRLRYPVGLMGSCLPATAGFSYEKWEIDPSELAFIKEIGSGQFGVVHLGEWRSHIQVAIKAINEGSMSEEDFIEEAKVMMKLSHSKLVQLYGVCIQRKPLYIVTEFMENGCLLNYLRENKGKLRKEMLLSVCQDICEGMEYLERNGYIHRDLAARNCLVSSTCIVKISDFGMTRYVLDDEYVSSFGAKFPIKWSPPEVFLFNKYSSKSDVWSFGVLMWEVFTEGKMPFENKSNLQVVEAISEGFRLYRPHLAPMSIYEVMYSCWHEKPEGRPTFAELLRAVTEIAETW

[5] = target: Calcium/calmodulin-dependent protein kinase type II subunit beta (Homo sapiens) (UniProt Q13554); experiment: Selectivity interaction (Kinase panel (DSF assay)) EUB0001559a CAMK2B
Sequence of Calcium/calmodulin-dependent protein kinase type II subunit beta (Homo sapiens) (Q13554 whole entry): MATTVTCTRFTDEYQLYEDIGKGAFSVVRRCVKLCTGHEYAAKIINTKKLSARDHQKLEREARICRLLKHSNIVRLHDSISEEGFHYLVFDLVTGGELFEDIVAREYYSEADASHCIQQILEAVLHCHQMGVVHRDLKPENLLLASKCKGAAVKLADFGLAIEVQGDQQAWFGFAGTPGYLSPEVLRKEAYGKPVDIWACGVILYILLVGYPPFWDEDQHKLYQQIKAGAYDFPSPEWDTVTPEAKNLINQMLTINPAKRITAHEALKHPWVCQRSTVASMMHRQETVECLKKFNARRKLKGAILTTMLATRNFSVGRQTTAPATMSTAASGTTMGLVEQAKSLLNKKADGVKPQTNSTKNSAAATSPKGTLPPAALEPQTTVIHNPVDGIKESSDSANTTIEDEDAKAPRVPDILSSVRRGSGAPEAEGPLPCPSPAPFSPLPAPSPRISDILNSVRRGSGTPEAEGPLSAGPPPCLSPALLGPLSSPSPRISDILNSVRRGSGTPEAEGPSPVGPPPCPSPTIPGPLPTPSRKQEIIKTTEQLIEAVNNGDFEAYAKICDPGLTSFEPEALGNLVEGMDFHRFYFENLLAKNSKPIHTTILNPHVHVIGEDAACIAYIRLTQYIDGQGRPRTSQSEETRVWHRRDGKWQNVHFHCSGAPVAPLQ

[6] = target: T3, Activin receptor type-1 (Homo sapiens) (UniProt Q04771); experiment: Selectivity interaction (KinomeScan (DiscoverX)) EUB0000595a ACVR1; details: at 10 µM
T3 sequence (whole entry): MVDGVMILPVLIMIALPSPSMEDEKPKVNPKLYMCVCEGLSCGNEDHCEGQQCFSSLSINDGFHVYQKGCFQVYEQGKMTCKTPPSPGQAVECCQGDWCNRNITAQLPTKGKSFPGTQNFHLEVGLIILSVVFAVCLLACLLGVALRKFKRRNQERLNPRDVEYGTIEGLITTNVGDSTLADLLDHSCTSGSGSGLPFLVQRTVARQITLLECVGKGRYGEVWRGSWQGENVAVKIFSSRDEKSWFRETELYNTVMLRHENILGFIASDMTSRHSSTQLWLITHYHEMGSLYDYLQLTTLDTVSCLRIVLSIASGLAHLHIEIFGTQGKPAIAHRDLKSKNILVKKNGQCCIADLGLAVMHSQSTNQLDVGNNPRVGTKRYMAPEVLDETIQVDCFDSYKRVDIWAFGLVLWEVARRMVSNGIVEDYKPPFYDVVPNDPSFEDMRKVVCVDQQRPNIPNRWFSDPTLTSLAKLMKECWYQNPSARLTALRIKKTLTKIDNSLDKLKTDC

[7] = target: Serine/threonine-protein kinase pim-2 (Homo sapiens, UniProt Q9P1W9); experiment: Selectivity interaction (Ambit KINOMEscan and KiNATiv profiling in Jurkat cells) EUB0000090b PIM2; type: cell-based; details: at 1 µM
Sequence of Serine/threonine-protein kinase pim-2 (Q9P1W9 whole entry, looked up): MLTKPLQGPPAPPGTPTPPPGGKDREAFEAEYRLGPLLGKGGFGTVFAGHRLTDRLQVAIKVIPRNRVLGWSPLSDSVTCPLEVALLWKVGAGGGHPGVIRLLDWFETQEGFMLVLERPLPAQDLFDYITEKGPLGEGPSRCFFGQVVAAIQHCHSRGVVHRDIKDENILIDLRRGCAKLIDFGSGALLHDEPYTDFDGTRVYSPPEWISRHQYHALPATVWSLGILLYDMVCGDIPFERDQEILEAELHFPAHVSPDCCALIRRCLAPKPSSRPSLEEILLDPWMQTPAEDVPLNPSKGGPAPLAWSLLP

[8] = target: Leukocyte tyrosine kinase receptor (Homo sapiens, UniProt P29376); experiment: Selectivity interaction (KinomeScan (DiscoverX)) EUB0000045b LTK
Sequence of Leukocyte tyrosine kinase receptor (P29376 whole entry, the tested form may be a part): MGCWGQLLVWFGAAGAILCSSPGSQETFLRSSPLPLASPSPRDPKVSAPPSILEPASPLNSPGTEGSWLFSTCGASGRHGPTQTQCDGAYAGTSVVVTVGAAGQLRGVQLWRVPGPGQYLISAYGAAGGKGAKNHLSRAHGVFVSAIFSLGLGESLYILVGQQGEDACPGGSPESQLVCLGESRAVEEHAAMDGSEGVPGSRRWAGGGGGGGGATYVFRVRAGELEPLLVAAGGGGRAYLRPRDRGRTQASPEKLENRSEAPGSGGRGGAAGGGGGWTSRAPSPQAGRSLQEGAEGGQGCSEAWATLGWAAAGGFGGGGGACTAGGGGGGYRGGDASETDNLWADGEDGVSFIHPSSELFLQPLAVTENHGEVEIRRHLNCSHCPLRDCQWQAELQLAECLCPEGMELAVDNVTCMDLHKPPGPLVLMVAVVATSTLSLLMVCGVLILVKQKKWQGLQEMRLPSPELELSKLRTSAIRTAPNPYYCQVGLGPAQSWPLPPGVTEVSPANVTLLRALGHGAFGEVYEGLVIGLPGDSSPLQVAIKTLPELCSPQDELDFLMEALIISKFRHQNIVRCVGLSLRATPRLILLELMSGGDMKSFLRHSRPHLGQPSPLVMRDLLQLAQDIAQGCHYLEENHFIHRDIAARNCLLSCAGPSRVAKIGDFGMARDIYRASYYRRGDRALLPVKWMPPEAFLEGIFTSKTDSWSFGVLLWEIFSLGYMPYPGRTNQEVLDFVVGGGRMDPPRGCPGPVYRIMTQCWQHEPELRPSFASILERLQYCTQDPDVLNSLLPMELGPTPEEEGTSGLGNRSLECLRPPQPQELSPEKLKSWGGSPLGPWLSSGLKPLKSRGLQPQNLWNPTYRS

[9] = target: Phosphatidylinositol 4-phosphate 3-kinase C2 domain-containing subunit beta (Homo sapiens) (UniProt O00750); experiment: Selectivity interaction (KinomeScan (DiscoverX)) EUB0000045b PIK3C2B
Sequence of Phosphatidylinositol 4-phosphate 3-kinase C2 domain-containing subunit beta (Homo sapiens) (O00750 whole entry, the tested form may be a part): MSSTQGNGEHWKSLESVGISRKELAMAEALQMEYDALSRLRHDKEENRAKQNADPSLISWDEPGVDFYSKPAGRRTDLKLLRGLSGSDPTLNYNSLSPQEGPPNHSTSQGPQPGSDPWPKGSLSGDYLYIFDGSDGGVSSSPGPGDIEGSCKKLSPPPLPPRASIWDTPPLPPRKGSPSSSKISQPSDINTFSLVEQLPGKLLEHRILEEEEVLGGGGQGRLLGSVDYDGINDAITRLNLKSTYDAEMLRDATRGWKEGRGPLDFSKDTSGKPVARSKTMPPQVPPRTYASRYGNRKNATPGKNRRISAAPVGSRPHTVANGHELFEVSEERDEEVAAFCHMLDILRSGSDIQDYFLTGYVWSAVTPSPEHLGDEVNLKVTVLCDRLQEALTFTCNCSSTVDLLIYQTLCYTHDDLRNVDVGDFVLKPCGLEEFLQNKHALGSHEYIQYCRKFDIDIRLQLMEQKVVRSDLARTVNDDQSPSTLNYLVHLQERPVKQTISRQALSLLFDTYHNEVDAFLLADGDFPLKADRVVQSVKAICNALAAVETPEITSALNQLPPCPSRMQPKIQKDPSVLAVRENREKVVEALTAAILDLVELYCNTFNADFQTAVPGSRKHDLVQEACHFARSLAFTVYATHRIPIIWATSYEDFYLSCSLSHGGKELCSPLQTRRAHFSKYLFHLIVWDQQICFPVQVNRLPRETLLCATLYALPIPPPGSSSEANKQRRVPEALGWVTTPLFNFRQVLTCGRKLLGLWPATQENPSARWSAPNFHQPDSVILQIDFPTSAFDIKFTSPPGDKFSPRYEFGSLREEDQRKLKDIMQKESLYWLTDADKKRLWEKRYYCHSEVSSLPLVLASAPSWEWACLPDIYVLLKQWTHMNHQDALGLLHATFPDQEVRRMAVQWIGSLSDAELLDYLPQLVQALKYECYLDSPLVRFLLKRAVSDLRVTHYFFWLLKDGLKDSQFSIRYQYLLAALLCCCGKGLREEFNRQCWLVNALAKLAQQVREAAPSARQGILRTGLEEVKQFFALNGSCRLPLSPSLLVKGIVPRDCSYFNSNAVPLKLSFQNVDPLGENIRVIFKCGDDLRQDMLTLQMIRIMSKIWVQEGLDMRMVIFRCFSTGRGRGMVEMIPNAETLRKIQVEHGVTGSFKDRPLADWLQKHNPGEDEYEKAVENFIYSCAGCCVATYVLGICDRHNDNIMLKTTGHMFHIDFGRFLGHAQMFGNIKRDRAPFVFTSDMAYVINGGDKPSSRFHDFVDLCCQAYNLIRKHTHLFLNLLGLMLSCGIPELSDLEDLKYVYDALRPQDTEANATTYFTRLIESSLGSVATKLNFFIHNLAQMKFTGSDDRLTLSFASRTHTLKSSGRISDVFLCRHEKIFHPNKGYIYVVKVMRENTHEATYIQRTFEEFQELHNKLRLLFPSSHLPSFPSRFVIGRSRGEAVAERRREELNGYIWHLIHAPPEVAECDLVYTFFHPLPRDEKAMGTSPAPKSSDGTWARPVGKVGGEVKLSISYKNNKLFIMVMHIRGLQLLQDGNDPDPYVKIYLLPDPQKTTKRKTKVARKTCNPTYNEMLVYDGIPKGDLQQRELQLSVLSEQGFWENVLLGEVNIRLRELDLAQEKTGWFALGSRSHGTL

[10] = target: T4, Dual serine/threonine and tyrosine protein kinase (Homo sapiens) (UniProt Q6XUX3); experiment: Selectivity interaction (KinomeScan (DiscoverX)) EUB0000045b DSTYK
T4 sequence (whole entry): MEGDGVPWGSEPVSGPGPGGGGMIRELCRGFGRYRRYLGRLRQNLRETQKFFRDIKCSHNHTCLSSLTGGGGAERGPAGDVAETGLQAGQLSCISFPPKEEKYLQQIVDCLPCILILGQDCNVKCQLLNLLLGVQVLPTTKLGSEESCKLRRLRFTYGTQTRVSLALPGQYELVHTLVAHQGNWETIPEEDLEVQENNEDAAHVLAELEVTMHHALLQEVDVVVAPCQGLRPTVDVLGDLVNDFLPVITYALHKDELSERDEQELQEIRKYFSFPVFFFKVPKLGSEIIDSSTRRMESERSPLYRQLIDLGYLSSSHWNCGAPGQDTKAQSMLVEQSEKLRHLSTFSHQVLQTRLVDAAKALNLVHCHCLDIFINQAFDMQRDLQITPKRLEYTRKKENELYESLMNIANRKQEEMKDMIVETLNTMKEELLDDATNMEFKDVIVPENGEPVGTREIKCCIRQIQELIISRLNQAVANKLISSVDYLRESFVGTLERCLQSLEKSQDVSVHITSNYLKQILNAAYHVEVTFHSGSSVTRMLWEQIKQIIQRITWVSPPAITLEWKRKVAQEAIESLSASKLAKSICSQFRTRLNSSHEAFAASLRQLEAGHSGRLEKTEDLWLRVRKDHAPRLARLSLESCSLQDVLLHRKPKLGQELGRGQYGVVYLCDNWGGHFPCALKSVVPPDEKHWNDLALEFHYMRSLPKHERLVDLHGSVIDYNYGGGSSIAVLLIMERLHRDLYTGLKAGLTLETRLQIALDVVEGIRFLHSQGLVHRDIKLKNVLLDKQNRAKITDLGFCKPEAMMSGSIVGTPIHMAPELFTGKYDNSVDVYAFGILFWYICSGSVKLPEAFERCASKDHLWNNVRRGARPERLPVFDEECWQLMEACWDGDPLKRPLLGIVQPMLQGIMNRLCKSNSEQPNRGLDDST

Sequence of 5'-AMP-activated protein kinase catalytic subunit alpha-2 (Homo sapiens) (P54646 whole entry, looked up): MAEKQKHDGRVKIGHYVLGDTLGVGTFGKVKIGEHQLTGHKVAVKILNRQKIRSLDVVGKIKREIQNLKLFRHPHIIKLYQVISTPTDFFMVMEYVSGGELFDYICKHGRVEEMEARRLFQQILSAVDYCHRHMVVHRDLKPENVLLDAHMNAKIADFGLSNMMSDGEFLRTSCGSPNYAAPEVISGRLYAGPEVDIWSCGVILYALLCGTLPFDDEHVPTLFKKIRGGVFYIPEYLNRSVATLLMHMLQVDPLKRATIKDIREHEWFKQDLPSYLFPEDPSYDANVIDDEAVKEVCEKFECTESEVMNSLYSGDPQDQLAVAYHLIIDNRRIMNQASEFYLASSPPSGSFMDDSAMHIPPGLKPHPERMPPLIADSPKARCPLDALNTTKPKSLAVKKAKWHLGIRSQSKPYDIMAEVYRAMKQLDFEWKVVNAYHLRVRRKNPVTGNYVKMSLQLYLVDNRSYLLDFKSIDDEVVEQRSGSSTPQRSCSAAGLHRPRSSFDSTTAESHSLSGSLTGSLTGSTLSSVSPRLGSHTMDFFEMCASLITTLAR

CC(=O)Nc1cccc(-n2c(=O)n(C3CC3)c(=O)c3c(Nc4ccc(I)cc4F)n(C)c(=O)c(C)c32)c1
% of control [1]: 104%

Nc1cnc(N2CCc3cc(S(=O)(=O)Nc4c(F)cc(Cl)cc4F)cc(N4CCCC4=O)c32)nc1 [TP-020n]
% of control [2]: 100%
% of control [3]: 84%
% of control [4]: 83%

CN(C(=O)c1cnn2cccnc12)c1cc2c(cc1N1CCOCC1)C(=O)N(C[C@@H](F)C(C)(C)O)C2
dTM [5]: 0 K

COCC(=O)NC/C=C/c1ccc2ncnc(Nc3ccc(Oc4ccc(C)nc4)c(C)c3)c2c1 [CP-724714]
% of control [6]: 90%

CN(C)C/C=C/C(=O)Nc1ccc(C(=O)N2CCCC(Nc3ncc(Cl)c(-c4c[nH]c5ccccc45)n3)C2)cc1 (stereo not drawn)
% of control [7]: 89%

C=CC(=O)Nc1cc(-n2c(=O)ccc3cnc4ccc(-c5ccc(NS(C)(=O)=O)cc5)cc4c32)ccc1C
% of control ([8]; at 1 µM): 100%
% of control ([8]; at 10 µM): 100%
% of control ([9]; at 1 µM): 100%
% of control ([9]; at 10 µM): 40%
% of control ([10]; at 1 µM): 100%
% of control ([10]; at 10 µM): 100%
